Measured values: article PMC8706783 (Pharmaceutics, 2021)

What was measured:
UGT1A7 = biological target: T1, UGT1A7 (Homo sapiens, UniProt Q9HAW7); experiment: Enzyme inhibition assay, UGT1A7
T1 sequence (Q9HAW7 26-530): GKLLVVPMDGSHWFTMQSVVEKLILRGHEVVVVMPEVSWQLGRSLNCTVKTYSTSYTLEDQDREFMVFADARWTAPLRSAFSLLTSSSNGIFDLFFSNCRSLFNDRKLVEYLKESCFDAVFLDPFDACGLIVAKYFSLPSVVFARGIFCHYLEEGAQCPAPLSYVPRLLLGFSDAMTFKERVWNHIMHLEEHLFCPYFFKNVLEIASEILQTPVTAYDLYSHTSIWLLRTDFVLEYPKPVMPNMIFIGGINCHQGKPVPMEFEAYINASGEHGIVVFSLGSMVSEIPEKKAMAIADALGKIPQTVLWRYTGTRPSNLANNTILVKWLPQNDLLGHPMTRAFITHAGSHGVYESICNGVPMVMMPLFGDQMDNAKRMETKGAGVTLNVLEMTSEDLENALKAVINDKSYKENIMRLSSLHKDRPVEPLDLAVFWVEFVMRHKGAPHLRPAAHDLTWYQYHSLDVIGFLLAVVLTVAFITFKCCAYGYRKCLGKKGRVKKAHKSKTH

CYP1B1 = biological target: T2, CYP1B1 (Homo sapiens, UniProt Q16678); experiment: Enzyme inhibition assay, CYP1B1; format: in vitro ADME; details: Recombinant CYP1B1; 7-ethoxyresorufin O-deethylation
T2 construct: purchased Corning Inc

CYP2B6 = biological target: T3, CYP2B6 (Homo sapiens, UniProt P20813); experiment: Enzyme inhibition assay, CYP2B6; format: in vitro ADME
T3 construct: tissue Xenotech LLC; host or cells: human liver microsomes, mixed-gender 50 donor pool

CYP2C19 = CYP2C19 (Homo sapiens, UniProt P33261); experiment: Enzyme inhibition assay, CYP2C19
HLM (Phase 1) = experiment: Reaction phenotyping, HLM with NADPH; format: in vitro ADME, human
HLM (Phase 2) = experiment: Reaction phenotyping, HLM with UDPGA; details: HLM (Phase 2)
CYP3A4 mRNA = tested on: CYP3A4 mRNA; design: method as in PMID 23965226; details: 10 μM DPV, colorectal tissue from three human donors; cited from earlier work
UGT1A6 = biological target: T4, UGT1A6 (Homo sapiens, UniProt P19224); experiment: Enzyme inhibition assay, UGT1A6; format: in vitro ADME; details: Recombinant UGT1A6; 4-methylumbelliferone O-glucuronidation
T4 sequence (P19224 27-532): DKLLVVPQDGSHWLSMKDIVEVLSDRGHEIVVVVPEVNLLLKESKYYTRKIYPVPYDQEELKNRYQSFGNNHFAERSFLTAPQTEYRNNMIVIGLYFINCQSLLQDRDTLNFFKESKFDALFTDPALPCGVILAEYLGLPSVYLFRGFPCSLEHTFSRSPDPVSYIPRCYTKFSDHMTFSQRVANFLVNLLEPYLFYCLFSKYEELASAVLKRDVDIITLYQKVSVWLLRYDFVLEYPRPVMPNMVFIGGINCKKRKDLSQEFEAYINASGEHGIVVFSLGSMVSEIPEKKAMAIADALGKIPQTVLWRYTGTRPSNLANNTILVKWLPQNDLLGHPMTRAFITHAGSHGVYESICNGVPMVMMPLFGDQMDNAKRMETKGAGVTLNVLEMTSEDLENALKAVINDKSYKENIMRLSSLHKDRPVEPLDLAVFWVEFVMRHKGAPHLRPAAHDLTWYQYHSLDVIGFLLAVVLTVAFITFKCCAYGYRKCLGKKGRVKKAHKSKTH

CYP1A1 = biological target: T5, CYP1A1 (Homo sapiens, UniProt P04798); experiment: Enzyme inhibition assay, CYP1A1; format: in vitro ADME; design: purchased Xenotech LLC; details: Recombinant CYP1A1; phenacetin-O-deethylation
T5 sequence (P04798 1-512): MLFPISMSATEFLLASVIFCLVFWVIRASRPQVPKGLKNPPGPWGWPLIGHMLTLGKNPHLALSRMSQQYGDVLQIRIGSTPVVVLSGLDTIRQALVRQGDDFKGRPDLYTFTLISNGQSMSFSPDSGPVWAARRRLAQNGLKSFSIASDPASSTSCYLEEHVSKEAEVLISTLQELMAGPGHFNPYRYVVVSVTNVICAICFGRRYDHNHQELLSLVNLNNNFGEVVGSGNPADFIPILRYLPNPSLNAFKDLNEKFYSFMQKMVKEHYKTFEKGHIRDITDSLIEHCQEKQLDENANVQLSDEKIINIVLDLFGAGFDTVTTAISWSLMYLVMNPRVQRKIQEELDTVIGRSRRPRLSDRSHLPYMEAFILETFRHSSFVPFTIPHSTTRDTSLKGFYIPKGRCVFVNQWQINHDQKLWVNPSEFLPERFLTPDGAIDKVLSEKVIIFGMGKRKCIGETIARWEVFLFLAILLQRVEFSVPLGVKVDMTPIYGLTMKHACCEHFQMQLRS

UGT1A3 = biological target: T6, UGT1A3 (Homo sapiens, UniProt P35503); experiment: Enzyme inhibition assay, UGT1A3; format: in vitro ADME; design: from tissue; details: HLM; UGT1A3 chenodeoxycholic acid 24 O-glucuronidation
T6 sequence (P35503 29-534): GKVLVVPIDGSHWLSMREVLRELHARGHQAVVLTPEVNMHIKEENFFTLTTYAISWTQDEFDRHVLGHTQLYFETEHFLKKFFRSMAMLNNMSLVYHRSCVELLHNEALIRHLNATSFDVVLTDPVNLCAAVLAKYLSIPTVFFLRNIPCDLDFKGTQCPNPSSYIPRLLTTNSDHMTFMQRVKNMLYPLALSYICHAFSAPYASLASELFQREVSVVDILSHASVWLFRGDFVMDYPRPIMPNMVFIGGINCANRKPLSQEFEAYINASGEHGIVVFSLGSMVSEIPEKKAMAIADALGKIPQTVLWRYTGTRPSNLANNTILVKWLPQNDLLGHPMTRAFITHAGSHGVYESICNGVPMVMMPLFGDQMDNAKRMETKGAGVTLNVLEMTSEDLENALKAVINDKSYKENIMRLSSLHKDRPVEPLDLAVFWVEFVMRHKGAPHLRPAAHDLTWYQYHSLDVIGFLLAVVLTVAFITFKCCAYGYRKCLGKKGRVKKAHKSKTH

CYP1A2 mRNA = tested on: CYP1A2 mRNA; design: method as in PMID 23965226; details: 10 μM DPV, colorectal tissue from three human donors; cited from earlier work
[1] = tested on: primary human hepatocytes; experiment: Cytotoxicity in CYP induction studies; format: cell-based; details: 303 nM (100 ng/mL) in primary human hepatocytes
CYP2C8 = biological target: T7, CYP2C8 (Homo sapiens, UniProt P10632); experiment: Enzyme inhibition assay, CYP2C8; format: in vitro ADME
T7 construct: tissue Xenotech LLC; host or cells: human liver microsomes, mixed-gender 50 donor pool
T7 sequence (P10632 whole entry): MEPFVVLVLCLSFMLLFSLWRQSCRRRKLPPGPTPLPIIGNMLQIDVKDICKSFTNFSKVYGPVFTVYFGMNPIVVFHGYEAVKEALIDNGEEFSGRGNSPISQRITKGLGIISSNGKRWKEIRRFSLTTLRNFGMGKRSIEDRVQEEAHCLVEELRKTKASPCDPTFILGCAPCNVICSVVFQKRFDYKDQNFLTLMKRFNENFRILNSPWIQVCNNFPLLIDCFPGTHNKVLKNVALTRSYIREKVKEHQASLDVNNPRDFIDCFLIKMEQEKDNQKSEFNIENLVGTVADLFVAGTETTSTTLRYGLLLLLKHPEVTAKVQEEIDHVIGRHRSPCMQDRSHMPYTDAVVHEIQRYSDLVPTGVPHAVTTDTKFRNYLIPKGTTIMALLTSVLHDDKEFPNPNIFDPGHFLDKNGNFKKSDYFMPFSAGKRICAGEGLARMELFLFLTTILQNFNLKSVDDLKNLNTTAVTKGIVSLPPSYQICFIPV

T2 sequence (Q16678 whole entry): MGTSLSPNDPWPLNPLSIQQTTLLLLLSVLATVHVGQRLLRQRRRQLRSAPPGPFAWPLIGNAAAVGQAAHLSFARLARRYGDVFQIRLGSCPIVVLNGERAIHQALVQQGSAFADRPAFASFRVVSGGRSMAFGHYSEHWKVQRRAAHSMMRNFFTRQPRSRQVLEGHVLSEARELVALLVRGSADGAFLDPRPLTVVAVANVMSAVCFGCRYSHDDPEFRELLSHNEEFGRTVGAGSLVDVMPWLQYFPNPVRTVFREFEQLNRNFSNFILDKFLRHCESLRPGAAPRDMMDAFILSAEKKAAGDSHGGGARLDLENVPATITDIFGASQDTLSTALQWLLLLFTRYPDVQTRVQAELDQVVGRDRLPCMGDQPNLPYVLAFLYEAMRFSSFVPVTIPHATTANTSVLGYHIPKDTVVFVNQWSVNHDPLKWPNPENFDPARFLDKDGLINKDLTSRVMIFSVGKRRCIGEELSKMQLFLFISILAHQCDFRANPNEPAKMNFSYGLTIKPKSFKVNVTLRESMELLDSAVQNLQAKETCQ
T3 sequence (P20813 whole entry): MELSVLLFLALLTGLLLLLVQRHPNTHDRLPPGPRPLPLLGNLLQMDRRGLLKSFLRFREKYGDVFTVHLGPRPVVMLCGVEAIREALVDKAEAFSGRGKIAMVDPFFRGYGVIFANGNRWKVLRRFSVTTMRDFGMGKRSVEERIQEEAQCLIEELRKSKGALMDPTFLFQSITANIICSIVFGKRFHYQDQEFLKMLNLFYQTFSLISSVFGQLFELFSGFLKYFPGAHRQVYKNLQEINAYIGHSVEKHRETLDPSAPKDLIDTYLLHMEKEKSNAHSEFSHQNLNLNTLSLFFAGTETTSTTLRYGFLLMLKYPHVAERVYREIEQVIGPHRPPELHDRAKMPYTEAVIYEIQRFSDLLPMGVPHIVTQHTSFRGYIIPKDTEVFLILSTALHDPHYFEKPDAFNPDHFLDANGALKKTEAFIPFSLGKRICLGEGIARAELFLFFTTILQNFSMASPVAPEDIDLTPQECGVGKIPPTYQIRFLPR
Sequence of CYP2C19 (P33261 whole entry): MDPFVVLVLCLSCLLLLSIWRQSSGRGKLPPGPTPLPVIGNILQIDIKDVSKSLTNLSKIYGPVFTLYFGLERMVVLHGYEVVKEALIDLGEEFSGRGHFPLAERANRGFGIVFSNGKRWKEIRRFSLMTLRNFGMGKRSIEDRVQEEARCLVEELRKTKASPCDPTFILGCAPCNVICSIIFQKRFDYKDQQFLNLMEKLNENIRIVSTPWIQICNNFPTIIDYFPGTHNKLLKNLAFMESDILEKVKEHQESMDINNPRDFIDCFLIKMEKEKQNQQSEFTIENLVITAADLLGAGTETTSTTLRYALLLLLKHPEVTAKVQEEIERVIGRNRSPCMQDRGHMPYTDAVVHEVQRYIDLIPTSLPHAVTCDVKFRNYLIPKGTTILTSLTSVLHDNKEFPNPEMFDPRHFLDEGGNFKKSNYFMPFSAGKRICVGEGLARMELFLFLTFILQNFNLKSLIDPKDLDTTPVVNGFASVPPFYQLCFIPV

| Structure (SMILES) | IC50 (UGT1A7) [µM] | IC50 (CYP1B1) [µM] | IC50 (CYP2B6) [µM] | IC50 (CYP2C19) [µM] | % DPV Remaining at 60 min without MIC (HLM (Phase 1); 10 μM DPV) [%] | % DPV Remaining at 60 min with MIC (HLM (Phase 1); 10 μM DPV and 30 μM MIC) [%] | % DPV Remaining at 60 min without MIC (HLM (Phase 2); 10 μM DPV) [%] | % DPV Remaining at 60 min with MIC (HLM (Phase 2); 10 μM DPV and 30 μM MIC) [%] | CYP3A4 mRNA change (CYP3A4 mRNA) | IC50 (UGT1A6) [µM] | IC50 (CYP1A1) [µM] | IC50 (UGT1A3) [µM] | CYP1A2 mRNA change (CYP1A2 mRNA) | cytotoxicity [1] | IC50 (CYP2C8) [µM] |
| --- | --- | --- | --- | --- | --- | --- | --- | --- | --- | --- | --- | --- | --- | --- | --- |
| Cc1cc(C)c(Nc2ccnc(Nc3ccc(C#N)cc3)n2)c(C)c1 [DPV, Dapivirine] | 24.2 | 1.55 | 10.1 | > 30 | 37.14 | 88.39 | 97.15 | 95.59 | induction in two donors | 19.6 | 0.5 | 17 | induction in one donor | no cytotoxicity observed | 1.41 |
| Clc1ccc(COC(Cn2ccnc2)c2ccc(Cl)cc2Cl)c(Cl)c1 (centres unmarked) [MIC, miconazole] | > 30 | 0.47 | – | – | – | – | – | – | – | 17.1 | 0.43 | 13.6 | – | – | – |
